Results reported in paper PMC7677376 (Cell Discovery, 2020).

Molecular target: T1, MlaFEDB (Acinetobacter baumannii, UniProt A0A086HZU3)
T1 construct: gene ttg2A
Conditions: 1 mM vanadate; traps ADP-vanadate at the MlaF ATP sites

T1 sequence (V5V9K5 entry or part of it): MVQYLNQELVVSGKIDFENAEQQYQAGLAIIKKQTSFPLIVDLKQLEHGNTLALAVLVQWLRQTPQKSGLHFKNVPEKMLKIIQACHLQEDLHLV
T1 sequence (V5V9F4 entry or part of it, further chain): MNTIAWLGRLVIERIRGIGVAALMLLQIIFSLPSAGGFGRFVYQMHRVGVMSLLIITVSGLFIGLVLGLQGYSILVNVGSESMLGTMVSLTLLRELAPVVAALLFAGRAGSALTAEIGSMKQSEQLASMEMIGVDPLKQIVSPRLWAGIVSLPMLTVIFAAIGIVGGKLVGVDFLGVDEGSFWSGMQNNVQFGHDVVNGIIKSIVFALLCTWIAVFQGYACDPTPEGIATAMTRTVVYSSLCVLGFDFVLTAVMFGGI
T1 sequence (A0A086HZU3 entry or part of it): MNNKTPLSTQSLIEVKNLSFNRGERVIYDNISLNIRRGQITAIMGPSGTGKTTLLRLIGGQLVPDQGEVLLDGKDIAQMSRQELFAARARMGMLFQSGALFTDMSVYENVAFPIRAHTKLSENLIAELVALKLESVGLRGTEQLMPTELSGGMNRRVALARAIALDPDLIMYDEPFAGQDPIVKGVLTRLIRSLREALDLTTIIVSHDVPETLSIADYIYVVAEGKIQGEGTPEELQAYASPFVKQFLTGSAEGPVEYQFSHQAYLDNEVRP
T1 sequence (V5V921 entry or part of it, further chain): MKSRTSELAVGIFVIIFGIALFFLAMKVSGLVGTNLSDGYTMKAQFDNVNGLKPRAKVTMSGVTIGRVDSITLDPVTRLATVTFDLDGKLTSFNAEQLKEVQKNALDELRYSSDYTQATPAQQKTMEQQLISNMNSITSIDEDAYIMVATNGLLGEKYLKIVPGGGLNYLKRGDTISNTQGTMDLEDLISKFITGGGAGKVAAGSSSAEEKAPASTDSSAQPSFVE

[O]=[V]([OH])([OH])[OH] [sodium ortho-vanadate]
% inhibition at 1 mM: ~ 50%
